How the values were obtained:
[1] = test system: VEGF receptor tyrosine kinase (Flt, KDR); assay: In vitro receptor tyrosine kinase inhibition test (VEGF receptor); format: biochemical; conditions: VEGF receptor tyrosine kinase compared with EGF receptor tyrosine kinase
Text: (a) In Vitro Receptor Tyrosine Kinase Inhibition Test
This assay determines the ability of a test compound to inhibit tyrosine kinase activity. […] These may then be expressed in a suitable expression system to obtain polypeptide with tyrosine kinase activity. […] This recombinant construct was co-transfected into insect cells (for example Spodoptera frugiperda 21(Sf21)) with viral DNA (eg Pharmingen BaculoGold) to prepare recombinant baculovirus.
For expression of cFlt tyrosine kinase activity, Sf21 cells were infected with plaque-pure cFlt recombinant virus at a multiplicity of infection of 3 and harvested 48 hours later. […] The suspension was centrifuged for 10 minutes at 13,000 rpm at 4° C., the supernatant (enzyme stock) was removed and stored in aliquots at −70° C. Each new batch of stock enzyme was titrated in the assay by dilution with enzyme diluent (100 mM Hepes pH 7.4, 0.2 mM sodium orthovanadate. 0.1% v/v Triton X100, 0.2 mM dithiothreitol). For a typical batch, stock enzyme is diluted 1 in 2000 with enzyme diluent and 50 μl of dilute enzyme is used for each assay well.
A stock of substrate solution was prepared from a random copolymer containing tyrosine, for example Poly (Glu, Ala, Tyr) 6:3:1 (Sigma P3899), stored as 1 mg/ml stock in PBS at −20° C. and diluted 1 in 500 with PBS for plate coating.
On the day of the assay the substrate solution was discarded and the assay plate wells were washed once with PBST (PBS containing 0.05% v/v Tween 20) and once with 50 mM Hepes pH7.4.
Test compounds were diluted with 10% dimethylsulphoxide (DMSO) and 25 μl of diluted compound was transferred to wells in the washed assay plates. “Total” control wells contained 10% DMSO instead of compound. Twenty five microliters of 40 mM manganese(II)chloride containing 8 μM adenosine-5′-triphosphate (ATP) was added to all test wells except “blank” control wells which contained maganese(II)chloride without ATP. To start the reactions 50 μl of freshly diluted enzyme was added to each well and the plates were incubated at room temperature for 20 minutes. The liquid was then discarded and the wells were washed twice with PBST. […] Plates were then incubated for 20-60 minutes at room temperature until the optical density value of the “total” control wells, measured at 405 nm using a plate reading spectrophotometer, was approximately 1.0.

SMILES	melting point [°C]	activity against VEGF and EGF receptor tyrosine kinases [1]
COc1cc2c(Nc3ccc(Br)cc3F)ncnc2cc1OCCCS(C)(=O)=O [Example 32, 4-(4-bromo-2-fluoroanilino)6-methoxy-7-(3-methylsulphonylpropoxy)quinazoline]	> 250	–
COc1cc2c(Nc3ccc(Cl)cc3F)ncnc2cc1OCCNC(=O)OC(C)(C)C [Example 34, 7-(2-[N-tert-butoxycarbonylamino]ethoxy)4-(4-chloro-2-fluoroanilino)6-methoxyquinazoline]	190 to 191	substantially equivalent activity
COc1cc2c(Nc3ccc(Cl)cc3F)ncnc2cc1OCCN1C(=O)CCCC1=O [Example 35, 4-(4-chloro-2-fluoroanilino)-7-(2-(2,6-dioxopiperidino)ethoxy)-6-methoxyquinazoline]	202 to 203	–

The remaining lines, values ahead:

melting point [°C]	activity against VEGF and EGF receptor tyrosine kinases [1]	SMILES
181 to 182	substantially equivalent activity	COc1cc2c(Nc3ccc(Cl)cc3F)ncnc2cc1OCCN1CCSCC1 [Example 12, 4-(4-chloro-2-fluoroanilino)-6-methoxy-7-(2-thiomorpholinoethoxy)quinazoline]
250 to 252	substantially equivalent activity	COc1cc2c(Nc3ccc(Cl)cc3F)ncnc2cc1OCCN1CCCC1=O.Cl [Example 39, 4-(4-chloro-2-fluoroanilino)6-methoxy-7-(2-(2-oxopyrrolidin-1-yl)ethoxy)quinazoline hydrochloride]
> 250	substantially equivalent activity	COc1cc2c(Nc3ccc(Cl)cc3F)ncnc2cc1OCCN1CCNC1=O [Example 40, 4-(4-chloro-2-fluoroanilino)6-methoxy-7-(2-(2-oxoimidazolidin-1-yl)ethoxy)quinazoline]

— patent US6897210B2, “Quinazoline derivatives and pharmaceutical compositions containing them” (Zeneca Limited, priority 1996, dated 2005)
